The results in this text go back to patent publication US8975406B2, “Compound useful for the treatment of degenerative and inflammatory diseases” (Galapagos N.V., priority 2011, dated 2015).

Assay [1] deals with T1, Recombinant human TYK2 catalytic domain (Homo sapiens, UniProt P29597).
T1 construct: catalytic domain (amino acids 871-1187; catalog number 08-147); GST; purchased Carna Biosciences 08-147
T1 sequence (P29597 871-1187): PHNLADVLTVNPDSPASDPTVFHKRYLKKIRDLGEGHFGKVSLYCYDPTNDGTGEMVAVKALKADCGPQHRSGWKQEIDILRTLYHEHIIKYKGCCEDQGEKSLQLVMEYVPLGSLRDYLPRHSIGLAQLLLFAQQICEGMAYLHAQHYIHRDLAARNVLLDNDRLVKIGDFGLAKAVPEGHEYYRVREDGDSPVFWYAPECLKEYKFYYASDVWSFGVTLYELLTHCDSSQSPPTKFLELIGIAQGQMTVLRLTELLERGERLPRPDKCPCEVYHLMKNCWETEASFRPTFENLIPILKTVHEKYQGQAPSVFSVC
Description: TYK2 inhibition assay. It counts as biochemical. The following applies: polyGT substrate, 33P-gamma-ATP filter assay, 0.1 μM ATP. As for the experimental part:
Recombinant human TYK2 catalytic domain (amino acids 871-1187; catalog number 08-147) was purchased from Carna biosciences. 4 ng of TYK2 was incubated with 12.5 μg polyGT substrate (Sigma catalog number P0275) in kinase reaction buffer (25 mM Hepes pH 7.2, 50 mM NaCl, 0.5 mM EDTA, 1 mM DTT, 5 mM MnCl2, 10 mM MgCl2, 0.1% Brij-35, 0.1 μM non-radioactive ATP, 0.125 μCi ^33P-gamma-ATP (Perkin Elmer, catalog number NEG602K001MC) final concentrations) with or without 5 μL containing test compound or vehicle (DMSO, 1% final concentration), in a total volume of 25 μL, in a polypropylene 96-well plate (Greiner, V-bottom). After 90 min at 30° C., reactions were stopped by adding 25 μL/well of 150 mM phosphoric acid. All of the terminated kinase reaction was transferred to prewashed (75 mM phosphoric acid) 96 well filter plates (Perkin Elmer catalog number 6005177) using a cell harvester (Perkin Elmer). Plates were washed 6 times with 300 μL per well of a 75 mM phosphoric acid solution and the bottom of the plates was sealed. 40 μL/well of Microscint-20 was added, the top of the plates was sealed and readout was performed using the Topcount (Perkin Elmer). Kinase activity was calculated by subtracting counts per min (cpm) obtained in the presence of a positive control inhibitor (10 μM staurosporine) from cpm obtained in the presence of vehicle. The ability of a test compound to inhibit this activity was determined as: Percentage inhibition=((cpm determined for sample with test compound present−cpm determined for sample with positive control inhibitor)divided by(cpm determined in the presence of vehicle−cpm determined for sample with positive control inhibitor))*100.
Dose dilution series were prepared for the compounds enabling the testing of dose-response effects in the TYK2 assay and the calculation of the IC50 for each compound. Each compound was routinely tested at concentration of 20 μM followed by a ⅓ serial dilution, 8 points (20 μM-6.67 μM-2.22 μM-740 nM-247 nM-82 nM-27 nM-9 nM) in a final concentration of 1% DMSO. When potency of compound series increased, more dilutions were prepared and/or the top concentration was lowered (e.g. 5 μM, 1 μM).

Assay [2] relates to JAK-STAT signalling in HeLa cells. Nature of the assay: JAK-STAT signalling assay (pSTAT1(2)-luciferase reporter, OSM-triggered HeLa cells). Type of assay: cell-based. The following applies: human OSM 33 ng/mL. The method, then: HeLa cells were maintained in Dulbecco's Modified Eagle's Medium (DMEM) containing 10% heat inactivated fetal calf serum, 100 U/mL penicillin and 100 μg/mL streptomycin. HeLa cells were used at 70% confluence for transfection. 20,000 cells in 87 μL cell culture medium were transiently transfected with 40 ng pSTAT1(2)-luciferase reporter (Panomics), 8 ng of LacZ reporter as internal control reporter and 52 ng of pBSK using 0.32 μL Jet-PEI (Polyplus) as transfection reagent per well in 96-well plate format. After overnight incubation at 37° C., 5% CO2, transfection medium was removed. 81 μL of DMEM+1.5% heat inactivated fetal calf serum was added. 9 μL compound at 10× concentration was added for 60 min and then 10 μL of human OSM (Peprotech) at 33 ng/mL final concentration.
All compounds were tested in duplicate starting from 20 μM followed by a ⅓ serial dilution, 8 doses in total (20 μM-6.6 μM-2.2 μM-740 nM-250 nM-82 nM-27 nM-9 nM) in a final concentration of 0.2% DMSO.
After overnight incubation at 37° C., 5% CO2 cells were lysed by adding 100 μL lysis buffer/well (PBS, 0.9 mM CaCl2, 0.5 mM MgCl2, 10% Trehalose, 0.05% Tergitol NP9, 0.3% BSA).
40 μL of cell lysate was used to read β-galactosidase activity by adding 180 μL β-Gal solution (30 μl ONPG 4 mg/mL+150 μL β-Galactosidase buffer (0.06 M Na2HPO4, 0.04 M NaH2PO4, 1 mM MgCl2)) for 20 min. The reaction was stopped by addition of 50 μL Na2CO3 1 M. Absorbance was read at 405 nm.
Luciferase activity was measured using 40 μL cell lysate plus 40 μL of Steadylite® as described by the manufacturer (Perkin Elmer), on the Envision (Perkin Elmer).
Omitting OSM was used as a positive control (100% inhibition). As negative control 0.5% DMSO (0% inhibition) was used. The positive and negative controls were used to calculate z′ and ‘percent inhibition’ (PIN) values. Percentage inhibition=((fluorescence determined in the presence of vehicle−fluorescence determined for sample with test compound present)divided by(fluorescence determined in the presence of vehicle−fluorescence determined for sample without trigger))*100.
PIN values were plotted for compounds tested in dose-response and EC50 values were derived.
In general terms: In a reporter assay the amount or activity of a reporter protein is the signal.

SMILES strings stand for the structures.

Turning to `CS(=O)(=O)C1CCN(Cc2ccc(-c3cccn4nc(NC(=O)C5CC5)cc34)cc2F)CC1` [Compound 18, N-(4-(3-fluoro-4-((4-(methylsulfonyl)piperidin-1-yl)methyl)phenyl)pyrazolo[1,5-a]pyridin-2-yl)cyclopropanecarboxamide], the half-maximal inhibitory concentration (IC50) (usually the point on the concentration scale where inhibition reaches its midpoint) in assay [1] lay in the range of 0.01 to 100 nM; in assay [2], 101 to 500 nM.

As for `CS(=O)(=O)C1CCN(Cc2ccc(-c3cccn4nc(NC(=O)C5CC5)c(Cl)c34)cc2)CC1` [Compound 19, N-(3-chloro-4-(4-((4-(methylsulfonyl)piperidin-1-yl)methyl)phenyl)pyrazolo[1,5-a]pyridin-2-yl)cyclopropanecarboxamide], the concentration for half-maximal inhibition (IC50) in assay [1] was 101 to 500 nM; in assay [2] it was over 1000 nM.

In the case of `CS(=O)(=O)C1CCN(Cc2ccc(-c3cccn4nc(NC(=O)C5CC5)c(Cl)c34)cc2F)CC1` [Compound 20, N-(3-chloro-4-(3-fluoro-4-((4-(methylsulfonyl)piperidin-1-yl)methyl)phenyl)pyrazolo[1,5-a]pyridin-2-yl)cyclopropanecarboxamide], the concentration for half-maximal inhibition (IC50) in assay [1] was 0.01 to 100 nM; in assay [2], over 1000 nM.

Regarding `CC(=O)Nc1cc2c(-c3ccc(CN4CCN(S(C)(=O)=O)CC4)c(F)c3)cccn2n1` [Compound 21], the half-maximal inhibitory concentration (IC50) in assay [1] was in the range of 101 to 500 nM; in assay [2], 501 to 1000 nM.

Take `CS(=O)(=O)N1CCN(Cc2ccc(-c3cccn4nc(NC(=O)C5CC5)cc34)cn2)CC1` [Compound 23, N-(4-(6-((4-(methylsulfonyl)piperazin-1-yl)methyl)pyridin-3-yl)pyrazolo[1,5-a]pyridin-2-yl)cyclopropanecarboxamide]: the values for the concentration for half-maximal inhibition (IC50) in assay [1] and in assay [2] were 101 to 500 nM and over 1000 nM, respectively.

Consider `CC(=O)Nc1cc2c(-c3ccc(CN4CCN(S(C)(=O)=O)C[C@H]4C)cc3)cccn2n1` [Compound 24, (R)-N-(4-(4-((2-methyl-4-(methylsulfonyl)piperazin-1-yl)methyl)phenyl)pyrazolo[1,5-a]pyridin-2-yl)acetamide], for which the IC50 in assay [1] was 501 to 1000 nM; in assay [2] it was over 1000 nM.

As to `CC(=O)Nc1cc2c(-c3ccc(CN4CCN(S(C)(=O)=O)CC4)cc3)cccn2n1` [Compound 25, N-(4-(4-((4-(methylsulfonyl)piperazin-1-yl)methyl)phenyl)pyrazolo[1,5-a]pyridin-2-yl)acetamide], the results for the concentration for half-maximal inhibition (IC50) in assay [1] and in assay [2] were 101 to 500 nM and 501 to 1000 nM, respectively.

With `CC(=O)Nc1cc2c(-c3cnc(CN4CCN(S(C)(=O)=O)CC4)c(F)c3)cccn2n1` [Compound 26, N-(4-(5-fluoro-6-((4-(methylsulfonyl)piperazin-1-yl)methyl)pyridin-3-yl)pyrazolo[1,5-a]pyridin-2-yl)acetamide], the half-inhibitory concentration (IC50) in assay [1] and in assay [2] was over 1000 nM each time.

Regarding `CC(=O)Nc1cc2c(-c3ccc(CN4CCS(=O)(=O)CC4)c(F)c3)cccn2n1` [Compound 27, N-{4-[4-(1,1-Dioxo-thiomorpholin-4-ylmethyl)-3-fluoro-phenyl]-pyrazolo[1,5-a]pyridin-2-yl}-acetamide], the IC50 in assay [1] fell in the range of 0.01 to 100 nM; in assay [2], 101 to 500 nM.

`CC(=O)Nc1cc2c(-c3ccc(CN4CCC(S(C)(=O)=O)CC4)c(F)c3)cccn2n1` [Compound 29, N-(4-(3-fluoro-4((4-(methylsulfonyl)piperidin-1-yl)methyl)phenyl)pyrazolo[1,5-a]pyridin-2-yl)acetamide]: the figures for the IC50 in assay [1] and in assay [2] were 0.01 to 100 nM and over 1000 nM, respectively.

For the compound `CC(=O)Nc1cc2c(-c3ccc(CC(=O)N4CC(F)(F)C4)cc3)cccn2n1` [Compound 34, N-(4-(4-(2-(3,3-difluoroazetidin-1-yl)-2-oxoethyl)phenyl)pyrazolo[1,5-a]pyridin-2-yl)acetamide], the IC50 in assay [1] lay within 0.01 to 100 nM; in assay [2], 501 to 1000 nM.

For the compound `C[C@@H]1CN(S(C)(=O)=O)CCN1Cc1ccc(-c2cccn3nc(NC(=O)C4CC4)cc23)cc1` [Compound 44, (R)-N-(4-(4-((2-methyl-4-(methylsulfonyl)piperazin-1-yl)methyl)phenyl)pyrazolo[1,5-a]pyridin-2-yl)cyclopropanecarboxamide], the IC50 in assay [1] was 0.01 to 100 nM; in assay [2] it was 101 to 500 nM.

With `CC(=O)Nc1cc2c(-c3ccc(C(C)N4CCN(S(C)(=O)=O)CC4)cc3)cccn2n1` (stereo not shown) [Compound 45, N-(4-(4-(1-(4-(methylsulfonyl)piperazin-1-yl)ethyl)phenyl)pyrazolo[1,5-a]pyridin-2-yl)acetamide], the 50% inhibitory concentration (IC50) was 0.01 to 100 nM in assay [1] and 501 to 1000 nM in assay [2].

With `C[C@H](c1ccc(-c2cccn3nc(NC(=O)C4CC4)cc23)cc1)N1CCN(S(C)(=O)=O)CC1` [Compound 46, (R)-N-(4-(4-(1-(4-(methylsulfonyl)piperazin-1-yl)ethyl)phenyl)pyrazolo[1,5-a]pyridin-2-yl)cyclopropanecarboxamide], the IC50 in assay [1] was in the range of 0.01 to 100 nM; in assay [2] it was 101 to 500 nM.

As for `C[C@@H](c1ccc(-c2cccn3nc(NC(=O)C4CC4)cc23)cc1)N1CCN(S(C)(=O)=O)CC1` [Compound 47, (S)-N-(4-(4-(1-(4-(methylsulfonyl)piperazin-1-yl)ethyl)phenyl)pyrazolo[1,5-a]pyridin-2-yl)cyclopropanecarboxamide], the concentration for half-maximal inhibition (IC50) in assay [1] is 0.01 to 100 nM; in assay [2] it was 101 to 500 nM.

`O=C(Nc1cc2c(-c3ccc(CN4CCCCC45COC5)cc3)cccn2n1)C1CC1` [Compound 48, N-(4-(4-(2-oxa-5-azaspiro[3.5]nonan-5-ylmethyl)phenyl)pyrazolo[1,5-a]pyridin-2-yl)cyclopropanecarboxamide]: the IC50 in assay [1] is 101 to 500 nM; in assay [2], 501 to 1000 nM.

As to `CS(=O)(=O)N1CC[C@@H](Oc2ccc(-c3cccn4nc(NC(=O)C5CC5)cc34)cc2)C1` [Compound 49, (R)-N-(4-(4-(1-(methylsulfonyl)pyrrolidin-3-yloxy)phenyl)pyrazolo[1,5-a]pyridin-2-yl)cyclopropanecarboxamide], the half-maximal inhibitory concentration (IC50) in assay [1] was in the range of 0.01 to 100 nM; in assay [2], 101 to 500 nM.
